Patent US5981530A, “Piperazine derivative” (Senju Pharmaceutical Co., Ltd., priority 1995, dated 1999)
Where a name gives a salt, the structure may show the parent alone.

Tested on: rat palpebral PCA reaction
Experiment: Passive cutaneous anaphylactic (PCA) reaction of the rat palpebra
Format: in vivo, rat (male Wistar)
Conditions: 100 mg/5 ml/kg oral, 60 min prior to induction of PCA; for Degree of Inhibition (%): vs negative control
Method: Effect of the compound of the invention on the passive cutaneous anaphylactic (PCA) reaction of the rat palpebra
The effect of the compound of the invention on rat palpebral PCA reaction was investigated.
Male Wistar rats weighing about 120 g were purchased from Japan SLC for the experiment.
Using a microsyringe, 25 μl of antiserum (32-fold dilution) was injected beneath the palpebral conjunctiva of the right eye of rats under pentobarbital anesthesia. Forty-eight (48) hours after injection of antiserum, a mixture of 2% chicken egg albumin and 1% Evans blue, 5 ml/kg, was administered into the tail vein to induce PCA reaction. Thirty (30) minutes after induction, the rat was sacrificed and the stained portion of the palpebral conjunctiva of the right eye was excised. The dye was extracted into 5 ml of formamide, and the amount of the dye was determined at 625 nm.
The test substance, 100 mg/5 ml/kg, was administered orally 60 minutes prior to induction of PCA reaction.
As a negative control, 5 ml/kg of 0.5% carboxymethylcellulose (CMC) was administered orally. As a positive control, 100 mg/5 ml/kg of diphenhydramine hydrochloride, a commercial antihistaminic, was administered orally.

[1] = Table 1, mean ± SD (n = 5), negative control 0.662 ± 0.112, *1 p < 0.05, *2 p < 0.001
[2] = Table 1, n = 5, *1 p < 0.05, *2 p < 0.001

## COc1ccc(OCC(O)CN2CCN(c3ccccc3C(=O)O)CC2)c(C(C)(C)C)c1 (stereo not drawn) [Example 1, 3-[4-(2-Carboxyphenyl)piperazinyl]-1-(2-tert-butyl-4-methoxyphenoxy)propan-2-ol]
[1]
  Absorbance (extracted dye, 625 nm): 0.299 ± 0.056
[2]
  Degree of Inhibition (%): 54.8%

## CN(C)CCOC(c1ccccc1)c1ccccc1 [Diphenhydramine HCl, diphenhydramine hydrochloride, reference compound]
[1]
  Absorbance (extracted dye, 625 nm): 0.413 ± 0.126
[2]
  Degree of Inhibition (%): 37.6%

## O=C(O)c1ccccc1N1CCN(CC(O)COc2cccc3[nH]ccc23)CC1 (stereo not drawn) [Example 5, 3-[4-(2-Carboxyphenyl)piperazinyl]-1-(1H-indol-4-yloxy)propan-2-ol]
Table 2, mean ± SD (n = 6), negative control 0.486 ± 0.093, *1 p < 0.001
  Absorbance (extracted dye, 625 nm): 0.276 ± 0.048
Table 2, n = 6, *1 p < 0.001
  Degree of Inhibition (%): 43.2%
